According to patent publication EP3108900B1, “PROTOTYPE SYSTEMS OF THERANOSTIC BIOMARKERS FOR IN VIVO MOLECULAR MANAGEMENT OF CANCER” (EPOS-Iasis Research and Development, Ltd, priority 2015, dated 2016):
“And” between values parts separate entries of the source, which are not always exact repeats. Equal values may be shown once. Read-outs that look alike come from different tables or passages of the source.

How the values were obtained:
[1] = test system: colon cancer cells (SW480); experiment: antiproliferative effect / cell viability; type: cell-based; details: control = no drug
Description: The antiproliferative effect of the following compounds A1F, B1F, C1F and D1F were tested on colon cancer cells (SW480). [drawing 94] [drawing 95]

LoVo cells = experiment: MTT colorimetric assay (antiproliferative efficacy); type: cell-based
SW620 cells = experiment: label-free temporal and quantitative pharmacoproteomics; type: cell-based
Description: The following experiment was performed to uncover new biomarkers of therapeutic response to the anticancer efficacy of the natural product based theranostic systems of the present invention.
In this experiment, SW620 cells were seeded in T75 flasks in DMEM, 10% FBS and 1% Penicillin/Streptomycin (all from Gibco). The cells were allowed to attach overnight. The following day the medium was removed and fresh medium containing 0.04 mM of either γT (γ-tocotrienol) or DCE-γT (diluted in absolute ethanol; final concentration of ethanol in the medium was 0.1% v/v). For control untreated cells, equal amount of fresh medium (containing ethanol at 0.1% v/v final concentration) was added.
SW620 cells were harvested after 24, 36 and 48 hrs of incubation with γT or DCE-γT. Briefly, the medium was removed and the cells were rinsed three times with PBS (without Ca, Mg) (Gibco). Fresh PBS was added and the cells were scraped off the flasks and collected in tubes. Collected cells were centrifuged at 1000rpm (165g) for 3min and the supernatant was removed. The cell pellet was re-suspended in PBS and the centrifugation step was repeated. The supernatant was removed and the cells in minimal residual PBS were snap-freezed in liquid nitrogen. Once frozen the cells were stored in -80°C until the proteomics analysis.
In terms of data analysis, a threshold of relative protein abundance equal or greater than 1.5-fold increase or decrease was set.

EGFR-Luc and Grb2-GFP = EGFR-Luc and Grb2-GFP (Homo sapiens, UniProt P00533); experiment: BRET assay of EGFR-Luc and Grb2-GFP interaction; type: cell-based; details: interaction between EGFR-Luc and Grb2-GFP
[2] = in vivo biodistribution, quantitative fluorescence imaging
[3] = target: T1, EGFR membrane tyrosine kinase receptor (Homo sapiens, UniProt P00533); experiment: FRET assay in cells transfected with EGFR-Luc plasmid; type: cell-based; details: EGFR negative colon cancer cells transiently transfected with EGFR-Luc plasmid
T1 construct: expressed in transfected cells
Description: The fluorescent esters of the natural products disclosed herein can also be used as molecular probes for deciphering the interaction between the natural product and potential biomarkers in cancer cells. EGFR negative colon cancer cells were transiently transfected with a rationally designed EGFR-Luc plasmid and incubated with the DCE-γ-Tocotrienol ester. Bioluminescence of the Luciferase (donor) was assessed against the fluorescence signal of either the DCE-γ-Tocotrienol ester or the hydrolysis product (acceptor).

[4] = SW620 cells, 0.04 mM, versus control untreated cells

C=CC(=O)Nc1cc2c(Nc3ccc(Br)cc3)ncnc2cc1NC(=O)CCl [A1F]
viability of the cells with respect to the control [1]: reduce the viability of the cells

C=CC(=O)Nc1cc2c(Nc3ccc(C(C)C)cc3)ncnc2cc1NC(=O)CCl [B1F]
viability of the cells with respect to the control [1]: reduce the viability of the cells

C=CC(=O)Nc1cc2c(NCc3cccc4ccccc34)ncnc2cc1NC(=O)CCl [C1F]
viability of the cells with respect to the control [1]: reduce the viability of the cells

C=CC(=O)Nc1cc2c(Nc3ccc(C(C)(C)C)cc3)ncnc2cc1NC(=O)CCl [D1F]
viability of the cells with respect to the control [1]: reduce the viability of the cells

CC1(C)C(/C=C/C=C/C=C/C=C2\N(CCCCS(=O)(=O)O)c3ccc4ccccc4c3C2(C)C)=[N+](CCCCS(=O)(=O)[O-])c2ccc3ccccc3c21 [free cyanine dye, indocyanine green]
antiproliferative efficacy (LoVo cells): did not exhibit any antiproliferative effects

CC(C)=CCC/C(C)=C/CC/C(C)=C/CC[C@]1(C)CCc2cc(O)c(C)c(C)c2O1 [γT, γ-tocotrienol, reference compound]
decrease of protein level of histone H2B types (SW620 cells; [4]): 1.8 fold | decrease of protein level of histone H3 types (SW620 cells; [4]): at least 3.7 fold | decrease of protein level of hnRNPs (SW620 cells; [4]): at least 2 fold | decrease of protein level of snRNPs / certain snRNP components (SW620 cells; [4]): 1.8 fold | increase of histone H2A.Z (SW620 cells; [4]): 24 fold | increase of the level of RNA helicases (SW620 cells; [4]): ≥ 1.9 fold | increase of the level of certain snRNP components (SW620 cells; [4]): ≥ 3 fold | increase of the level of transcription regulators/co-factors (SW620 cells; [4]): ≥ 2 fold

dicarboxylic ester of γ-Tocotrienol [DCE-γT]
activation within the EGFR axis (BRET signals) (EGFR-Luc and Grb2-GFP): neither the ester nor the hydrolysis products elicit any unwanted activation | decrease of DNA repair factors (SW620 cells): 2 fold | decrease of protein level of histone H3 types (SW620 cells): at least 6 fold | decrease of protein level of snRNPs / certain snRNP components (SW620 cells): 2 fold | increase of histone H2A.Z (SW620 cells): 23 fold | increase of histone H3 forms (SW620 cells): ≥ 1.8 fold | number of proteins whose expression was elicited (SW620 cells): 37 proteins and 30 proteins and 29 proteins | protein modulation (SW620 cells): statistically significant modulation of key proteins | time of peak of fluorescent signal ([2]; in vivo biodistribution, uptake as a function of time): 30 min | brain uptake / blood brain barrier passage ([2]; mouse brain parenchyma cells, data not shown): able to pass the blood brain barrier | BRET signal [3]: amplified FRET signal
